In patent publication US12643910B2, “Substituted pyrazolo[3,4-b]pyridines as ectonucleotide pyrophosphatase/phosphodiesterase 1 (ENPP1) modulators” (SANFORD BURNHAM PREBYS MEDICAL DISCOVERY INSTITUTE, priority 2019, dated 2026):

Columns and labels:
ENPP3 = biological target: T1, ENPP3 (Homo sapiens, UniProt O14638); test: ENPP3 Km ATP assay; type: biochemical; settings: ATP at Km
T1 sequence (O14638 1-875): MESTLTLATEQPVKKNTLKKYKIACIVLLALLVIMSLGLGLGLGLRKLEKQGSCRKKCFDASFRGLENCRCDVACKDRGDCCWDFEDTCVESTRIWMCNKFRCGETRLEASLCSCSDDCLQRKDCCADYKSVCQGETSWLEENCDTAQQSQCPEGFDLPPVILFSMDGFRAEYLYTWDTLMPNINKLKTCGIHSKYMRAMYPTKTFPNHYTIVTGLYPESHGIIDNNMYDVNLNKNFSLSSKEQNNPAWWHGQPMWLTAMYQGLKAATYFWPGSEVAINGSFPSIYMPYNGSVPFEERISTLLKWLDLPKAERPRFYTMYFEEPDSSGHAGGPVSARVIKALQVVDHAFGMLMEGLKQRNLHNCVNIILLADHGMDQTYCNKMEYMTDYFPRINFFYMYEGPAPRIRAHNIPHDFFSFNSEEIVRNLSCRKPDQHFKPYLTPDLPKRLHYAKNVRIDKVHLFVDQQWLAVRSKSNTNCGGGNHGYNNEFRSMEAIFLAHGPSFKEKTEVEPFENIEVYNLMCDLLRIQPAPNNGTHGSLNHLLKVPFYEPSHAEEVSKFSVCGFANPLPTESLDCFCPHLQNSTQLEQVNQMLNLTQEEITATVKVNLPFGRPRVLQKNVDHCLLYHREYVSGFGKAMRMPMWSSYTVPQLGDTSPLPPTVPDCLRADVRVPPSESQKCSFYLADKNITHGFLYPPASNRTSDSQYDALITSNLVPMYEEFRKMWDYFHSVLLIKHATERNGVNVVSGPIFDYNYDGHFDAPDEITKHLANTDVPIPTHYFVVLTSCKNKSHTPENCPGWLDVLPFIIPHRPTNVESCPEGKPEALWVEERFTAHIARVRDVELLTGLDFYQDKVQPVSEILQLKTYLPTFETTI

human ENPP1 = biological target: T2, human ENPP1 (Homo sapiens, UniProt P22413); test: ENPP1 assay with ATP substrate (Transcreener AMP2/GMP2 TR-FRET); type: biochemical; settings: 1 hour at room temperature
T2 construct: made in house
T2 sequence (P22413 1-925): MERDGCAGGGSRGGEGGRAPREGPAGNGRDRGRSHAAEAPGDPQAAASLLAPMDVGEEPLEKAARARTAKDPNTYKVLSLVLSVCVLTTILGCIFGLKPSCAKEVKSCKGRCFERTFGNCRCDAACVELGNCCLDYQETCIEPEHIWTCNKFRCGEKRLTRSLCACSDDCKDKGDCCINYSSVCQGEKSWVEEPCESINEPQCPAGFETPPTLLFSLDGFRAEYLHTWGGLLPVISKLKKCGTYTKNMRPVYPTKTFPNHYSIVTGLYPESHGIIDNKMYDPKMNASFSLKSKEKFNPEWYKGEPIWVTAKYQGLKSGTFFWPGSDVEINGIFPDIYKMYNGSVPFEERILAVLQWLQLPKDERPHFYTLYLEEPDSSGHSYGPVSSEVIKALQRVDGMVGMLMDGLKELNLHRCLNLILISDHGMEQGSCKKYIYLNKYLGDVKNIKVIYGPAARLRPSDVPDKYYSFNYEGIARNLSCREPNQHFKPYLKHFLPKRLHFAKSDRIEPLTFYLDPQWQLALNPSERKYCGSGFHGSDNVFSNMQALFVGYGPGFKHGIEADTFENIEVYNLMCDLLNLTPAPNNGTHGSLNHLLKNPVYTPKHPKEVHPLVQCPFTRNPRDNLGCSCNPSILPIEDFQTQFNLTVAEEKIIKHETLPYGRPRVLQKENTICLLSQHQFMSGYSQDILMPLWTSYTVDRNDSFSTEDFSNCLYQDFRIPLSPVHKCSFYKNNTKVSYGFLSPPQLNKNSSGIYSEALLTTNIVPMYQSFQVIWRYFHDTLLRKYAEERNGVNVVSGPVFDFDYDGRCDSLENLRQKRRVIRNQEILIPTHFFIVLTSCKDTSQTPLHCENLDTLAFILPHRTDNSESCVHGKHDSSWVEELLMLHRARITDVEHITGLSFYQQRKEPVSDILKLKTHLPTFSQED
Outline: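 Reaction ran 1 h at room temperature in pH 7.5 Tris with MgCl2, TCEP, Tween 20 and 1% DMSO. ATP was added as a 300 nM stock and enzyme as an 8.5 μM stock. After EDTA stop, AMP was read by TR-FRET tracer displacement. Percent inhibition used enzyme/no-enzyme controls; IC50 was fitted with a variable slope.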

In the case of `NS(=O)(=O)c1ccc(CNc2nc(-c3ccccn3)nc3scc(-c4ccncc4)c23)cc1` [Example 1.20, 4-(((2-(Pyridin-2-yl)-5-(pyridin-4-yl)thieno[2,3-d]pyrimidin-4-yl)amino)methyl)-benzenesulfonamide], the IC50 (ENPP3) is reported as greater than 20 µM and the IC50 (human ENPP1) is reported as 1 to 20 µM.

`NS(=O)(=O)c1ccc(CNc2ncnc3scc(C4=CCCCC4)c23)cc1` [Example 1.69, 4-((5-(1-Cyclohexenyl)thieno[2,3-d]pyrimidin-4-yl)aminomethyl)benzenesulfonamide] showed an IC50 (ENPP3) of 0.1 to 1 µM and an IC50 (human ENPP1) greater than 20 µM.

`CNc1nc(NCc2ccc(S(N)(=O)=O)cc2)c2c(-c3ccccc3)csc2n1` [Example 1.42, 4-(((2-(Methylamino)-5-phenylthieno[2,3-d]pyrimidin-4-yl)amino)methyl)-benzenesulfonamide] showed an IC50 (ENPP3) of less than 0.1 µM and an IC50 (human ENPP1) of less than 0.1 µM.

For `Cn1ncc2ncnc(NCc3ccc(S(N)(=O)=O)cc3)c21` [Example 2.54, 4-[(1-Methyl-1H-pyrazolo[4,3-d]pyrimidin-7-ylamino)-methyl]-benzenesulfonamide], the IC50 (ENPP3) was 1 to 20 µM and the IC50 (human ENPP1) was less than 0.1 µM.

`NS(=O)(=O)c1ccc(CNc2ncnc3scc(-c4ccccc4)c23)cc1` [Example 1.46, 4-(((5-Phenylthieno[2,3-d]pyrimidin-4-yl)amino)methyl)benzenesulfonamide] was tested, and the IC50 (ENPP3) was less than 0.1 µM and the IC50 (human ENPP1) was less than 0.1 µM.

With `c1ccc(-c2csc3nc(-c4ccccn4)nc(NCc4cccs4)c23)cc1` [Example 1.33, (5-Phenyl-2-pyridin-2-yl-thieno[2,3-d]pyrimidin-4-yl)-thiophen-2-ylmethyl-amine] the IC50 (ENPP3) was 1 to 20 µM and the IC50 (human ENPP1) was 0.1 to 1 µM.

Molecule `Cc1csc2c(N3CCC(NCCc4ccc(F)cc4)CC3)ncnc12` [Example 3.44, N-(4-Fluorophenethyl)-1-(7-methylthieno[3,2-d]pyrimidin-4-yl)piperidin-4-amine] has an IC50 (ENPP3) greater than 20 µM and an IC50 (human ENPP1) of 0.1 to 1 µM.

For `Cn1ncc2c(N3CCC(NCCCc4ccncc4)CC3)nc(-c3ccccc3)nc21` [Example 2.7, 1-(1-Methyl-6-phenyl-1H-pyrazolo[3,4-d]pyrimidin-4-yl)-N-(3-(pyridin-4-yl)propyl)piperidin-4-amine], the IC50 (ENPP3) was greater than 20 µM and the IC50 (human ENPP1) was greater than 20 µM.

`Cc1cnccc1CCCNC1CCN(c2ncnc3c(C)csc23)CC1` [Example 3.35, N-(3-(3-Methylpyridin-4-yl)propyl)-1-(7-methylthieno[3,2-d]pyrimidin-4-yl)piperidin-4-amine] was tested, and the IC50 (ENPP3) was greater than 20 µM and the IC50 (human ENPP1) was 0.1 to 1 µM.

Molecule `Cc1csc2c(N3CCC(NCCCc4ccncc4)CC3)nc(N3CCN(C)CC3)nc12` [Example 3.53, 1-(7-Methyl-2-(4-methylpiperazin-1-yl)thieno[3,2-d]pyrimidin-4-yl)-N-(3-(pyridin-4-yl)propyl)piperidin-4-amine] has an IC50 (ENPP3) greater than 20 µM and an IC50 (human ENPP1) greater than 20 µM.

`Cn1nc(-c2ccccc2)c2c(NCc3ccc(S(N)(=O)=O)cc3)nc(N3CCCCC3)nc21` [Example 2.132, 4-((1-Methyl-3-phenyl-6-piperidino-1H-pyrazolo[3,4-d]pyrimidin-4-yl)aminomethyl)benzenesulfonamide] showed an IC50 (ENPP3) of 0.1 to 1 µM and an IC50 (human ENPP1) of less than 0.1 µM.

Molecule `Cc1nc(NCc2ccc(S(N)(=O)=O)cc2)c2c(-c3ccccc3)csc2n1` [Example 1.44, 4-(((2-Methyl-5-phenylthieno[2,3-d]pyrimidin-4-yl)amino)methyl)benzenesulfonamide] has an IC50 (ENPP3) of less than 0.1 µM and an IC50 (human ENPP1) of less than 0.1 µM.

`CCc1nc(NCc2ccc(S(N)(=O)=O)cc2)c2cnn(C)c2n1` [Example 2.40, 4-(((6-Ethyl-1-methyl-1H-pyrazolo[3,4-d]pyrimidin-4-yl)amino)methyl)benzenesulfonamide] gave an IC50 (ENPP3) of 0.1 to 1 µM and an IC50 (human ENPP1) of less than 0.1 µM.

For `CN(Cc1ccc(S(N)(=O)=O)cc1)c1ncnc2c1cnn2C` [Example 2.136, 4-(N-methyl-N-(1-methyl-1H-pyrazolo[3,4-d]pyrimidin-4-yl)aminomethyl)-benzenesulfonamide], the IC50 (ENPP3) was 0.1 to 1 µM and the IC50 (human ENPP1) was 1 to 20 µM.

Work on `Cn1nc(-c2ccccc2)c2c(NCc3ccc(S(N)(=O)=O)cc3)ncnc21` [Example 2.44, 4-(((1-Methyl-3-phenyl-1H-pyrazolo[3,4-d]pyrimidin-4-yl)amino)methyl)-benzenesulfonamide] yielded an IC50 (ENPP3) of less than 0.1 µM and an IC50 (human ENPP1) of less than 0.1 µM.

`Cn1ncc2c(NCc3ccc(S(N)(=O)=O)cc3)ccnc21` [Example 2.60, 4-(((1-Methyl-1H-pyrazolo[3,4-b]pyridin-4-yl)amino)methyl)benzenesulfonamide] gave an IC50 (ENPP3) of 0.1 to 1 µM and an IC50 (human ENPP1) of less than 0.1 µM.

In the case of `Cc1ccc(CNc2nc(-c3ccccn3)nc3scc(-c4ccccc4)c23)o1` [Example 1.32, N-((5-methylfuran-2-yl)methyl)-5-phenyl-2-(pyridin-2-yl)thieno[2,3-d]pyrimidin-4-amine], the IC50 (ENPP3) is reported as greater than 20 µM and the IC50 (human ENPP1) is reported as 1 to 20 µM.

In the case of `Cc1csc2c(N3CCC(NCCCc4ccccc4F)CC3)ncnc12` [Example 3.33, N-(3-(2-Fluorophenyl)propyl)-1-(7-methylthieno[3,2-d]pyrimidin-4-yl)piperidin-4-amine], the IC50 (ENPP3) is reported as greater than 20 µM and the IC50 (human ENPP1) is reported as 0.1 to 1 µM.

`Cn1ncc2c(NCc3ccc(S(N)(=O)=O)cc3F)nc(Cl)nc21` [Example 2.140, 4-(((6-Chloro-1-methyl-1H-pyrazolo[3,4-d]pyrimidin-4-yl)amino)methyl)-3-fluorobenzenesulfonamide] showed an IC50 (ENPP3) of 0.1 to 1 µM and an IC50 (human ENPP1) of 0.1 to 1 µM.

Work on `CCCSc1nc(NCc2ccc(S(N)(=O)=O)cc2)c2cnn(C)c2n1` [Example 2.111, 4-((1-Methyl-6-(propylsulfanyl)-1H-pyrazolo[3,4-d]pyrimidin-4-yl)aminomethyl)-benzenesulfonamide] yielded an IC50 (ENPP3) of 0.1 to 1 µM and an IC50 (human ENPP1) of less than 0.1 µM.

In the case of `CCNc1nc(NCc2ccc(S(N)(=O)=O)cc2F)c2cnn(C)c2n1` [Example 2.141, 4-(((6-(Ethylamino)-1-methyl-1H-pyrazolo[3,4-d]pyrimidin-4-yl)amino)methyl)-3-fluorobenzenesulfonamide], the IC50 (ENPP3) is reported as 0.1 to 1 µM and the IC50 (human ENPP1) is reported as 0.1 to 1 µM.

With `CN1CCN(c2nc(NCc3ccc(S(N)(=O)=O)cc3)c3c(-c4ccccc4)csc3n2)CC1` [Example 1.25, 4-(((2-(4-Methylpiperazin-1-yl)-5-phenylthieno[2,3-d]pyrimidin-4-yl)amino)methyl)-benzenesulfonamide] the IC50 (ENPP3) was less than 0.1 µM and the IC50 (human ENPP1) was less than 0.1 µM.

In the case of `Cn1ncc2c(NCc3ccc(S(N)(=O)=O)cc3)nc(-c3ccccn3)nc21` [Example 2.10, 4-(((1-Methyl-6-(pyridin-2-yl)-1H-pyrazolo[3,4-d]pyrimidin-4-yl)amino)methyl)-benzenesulfonamide], the IC50 (ENPP3) is reported as 1 to 20 µM and the IC50 (human ENPP1) is reported as less than 0.1 µM.

With `Cc1csc2c(N3CCC(NCCOc4ccc(F)cc4)CC3)ncnc12` [Example 3.23, N-(2-(4-Fluorophenoxy)ethyl)-1-(7-methylthieno[3,2-d]pyrimidin-4-yl)piperidin-4-amine] the IC50 (ENPP3) was greater than 20 µM and the IC50 (human ENPP1) was greater than 20 µM.

In the case of `CN(C)c1nc(NCc2ccc(S(N)(=O)=O)cc2)c2cnn(C)c2n1` [Example 2.28, 4-(((6-(Dimethylamino)-1-methyl-1H-pyrazolo[3,4-d]pyrimidin-4-yl)amino)methyl)-benzenesulfonamide], the IC50 (ENPP3) is reported as 0.1 to 1 µM and the IC50 (human ENPP1) is reported as 1 to 20 µM.
